Source: US6608045B2 (priority 1998, dated 2003)

What was measured:
[1] = system: cell surface antigen CD69; test: Activation-induced CD69 expression in Jurkat T cells, flow cytometry; assay type: cell-based, human; conditions: 1 μg/ml, OKT-3 + PMA, 20 hours
Protocol: 1 μg/ml of tautomycetin was added to 1×10^6 of Jurkat T cells, which were stimulated by 10 μg/ml of OKT-3 monoclonal antibody and 50 ng/ml of PMA, and the cells were incubated for 20 hours. Monoclonal antibody against CD69(anti-CD69 mAb) was treated to the cells to carry out color-reaction and analysed by flow cytometry.

[2] = system: interleukin-2 receptor(IL-2R); test: Activation-induced interleukin-2 receptor expression on Jurkat T cell surface, flow cytometry; assay type: cell-based, human; conditions: 1 μg/ml, OKT-3 + PMA
Protocol: To investigate the suppressive activity against interleukin-2 receptor(IL-2R) expression on the cell surface, 1×10^6 of Jurkat T cell treated with 1 μg/ml of tautomycetin was activated by OKT-3 monoclonal antibody and PMA, and color-developed by the aid of monoclonal antibody against IL-2R(anti IL-2R mAb), then analysed by flow cytometry.

[3] = system: T-cell proliferation in mixed lymphocyte reaction (splenocytes of Balb/C and C57BL/6 mouse); test: Mouse mixed lymphocyte reaction (MLR), [3H]-thymidine labelling; assay type: cell-based; conditions: 72 hours + 24 hours [3H]-thymidine
Protocol: After the mixed cell culture was incubated at 37° C. for 72 hours, under an environment of 5% CO2, [^3H]-thymidine was added to the plate and further incubated for 24 hours to investigate the suppressive activity against T-cell proliferation by the degree of thymidine labelling.

[4] = system: tyrosine phosphorylation of intracellular proteins involved in TcR-mediated signal transduction; test: Immunoblot of tyrosine phosphorylation in CD8-ζ transfected Jurkat T cells stimulated by OKT-8; assay type: cell-based, human; conditions: 1 μg/ml, 10 hours, Jurkat T CD8-ζ transfectants, OKT-8 stimulation
Protocol: The suppressive activity of tautomycetin against the signal transduction around the membrane was investigated by determining the suppressive activity against the tyrosine phosphorylation of intracellular protein: To analyse the pathway of signal transduction mediated by TcR, Jurkat T cells which were transfected with a recombinant gene fragment, CD8-ζ chimeric DNA, harboring the ecto+transmembrane domain of CD8 and endomembrane domain of CD3-ζ chain, were cultured in RPMI medium containing 10% fetal bovine serum, 2 mM L-glutamine and 100 unit of penicillin. 1 μg/ml of tautomycetin was treated to 1×10^6 of Jurkat T cell transfectants and incubated for 10 hours, then centrifugation was carried out to harvest cells. The cells were washed twice with PBS and then stimulated by 10 μg/ml of OKT-8 and 10 μg/ml of the rabbit anti-mouse IgG antibody. The tyrosine phosphorylation was detected by immunoblot where the protein was isolated by 12.5% SDS-polyacrylamide gel electrophoresis and transferred to Immunobilon-P membrane(Millipore, U.S.A.). The phosphorylated tyrosine residue of intracellular protein or ZAP-70 protein was detected by the treatment of monoclonal antibody 4G10(Upstate Biotech Inc., U.S.A) or monoclonal antibody against ZAP-70(Zymed, U.S.A.), respectively. […]

[5] = system: IL-2 expression; test: IL-2 expression reporter (NF-AT/IL-2 promoter β-galactosidase) in transfected Jurkat T cells stimulated by OKT-3 (TcR-mediated) and PMA; assay type: cell-based, human
Protocol: Monoclonal antibody OKT-3, which binds specifically to ε-chain of T-cell receptor(TcR)-CD3 complex, induces IL-2 expression and specific T-cell proliferation by activating TcR-mediated signal transduction. In this regard, the suppressive activity of tautomycetin against the expression of IL-2 stimulated via TcR was investigated: First, 10 μg of goat anti-mouse IgG was immobilized on 96-well microplate in an ELISA coating buffer(pH 9.0) and 10 μg of monoclonal antibody OKT-3 was also immobilzed thereon. To monitor the IL-2 expression level indirectly, transfected Jurkat T cells where the expression of β-galactosidase is driven by the multiple NF-AT(nuclear transcriptional activator) binding sites upstream of minimal IL-2 promoter, were employed and the cells were resuspended in RPMI medium containing 10% fetal bovine serum, 2 mM L-glutamine and 100 unit of penicillin. 1×10^5 of transfected Jurkat T cells were aliquoted to 96-well microplate, and incubated for 24 hours in a medium containing 64 nM PMA while changing the concentration of tautomycetin. Then, centrifugation was carried out to harvest cells, and washed twice with PBS. 150 μl of β-galactosidase detecting solution(containing 0.1% Triton X-100, 200 mM sodium phosphate, 2 mM MgCl2, 100 mM β-mercaptoethanol, 1.33 mg/ml ONPG) was added to each well and after 1 hour, 100 μl of 1M sodium carbonate was added to stop the reaction and measured the suppressive activity of tautomycetin against the IL-2 expression by spectrophotometry at a wavelength of 410 nm.

[6] = system: graft rejection in heart transplantation; test: Heart graft experiment (Lewis rat donor, Wistar rat recipient), heartbeat by palpation; assay type: in vivo
[7] = system: Aspergillus niger; test: Antimicrobial activity by agar diffusion method (paper disc); assay type: cell-based
Protocol: The antimicrobial activity of tautomycetin prepared in Example 3 was measured by agar diffusion method. 1×10^8/ml of spore suspension of Aspergillus niger was mixed with glucose-yeast extract agar medium and a paper disc containing tautomycetin was put on the agar plate.

[8] = system: IL-2 expression; test: IL-2 expression reporter (NF-AT/IL-2 promoter β-galactosidase) in transfected Jurkat T cells stimulated by PMA and ionomycin; assay type: cell-based, human
Description: The suppressive activity of tautomycetin against the expression of interleukin-2(IL-2), which plays a crucial role in the immune system, was investigated by treating T-cell proliferating factors such as phorbol-12-myristate-13-acetate(PMA) and ionomycin, which activate protein kinase C to increase the level of diacylglycerol and Ca^2+ in cells: First, to monitor the IL-2 expression level indirectly, transfected Jurkat T cells where the expression of β-galactosidase is driven by the multiple NF-AT(nuclear transcriptional activator) binding sites upstream of minimal IL-2 promoter, were employed and the cells were resuspended in RPMI medium containing 10% fetal bovine serum, 2 mM L-glutamine and 100 unit of penicillin. 1×10^5 of transfected Jurkat T cells were aliquoted to 96-wll microplate, and incubated for 24 hours with the 4 μM ionomycin and 64 nM PMA, while changing the concentration of tautomycetin. Then, centrifugation was carried out to harvest cells, and washed twice with phosphate-buffered saline(PBS). 150 μl of β-galactosidase detecting solution(containing 0.1% Triton X-100, 200 mM sodium phosphate, 2 mM MgCl2, 100 mM β-mercaptoethanol, 1.33 mg/ml ONPG) was added to each well and incubated at 37° C. for 1 hour. 100 μl of 1M sodium carbonate was added to stop the reaction and measured the suppressive activity of tautomycetin against the IL-2 expression by spectrophotometry at a wavelength of 410 nm.

[9] = system: tyrosine phosphorylation of intracellular proteins (BcR signal transduction); test: Immunoblot of tyrosine phosphorylation in CD8-Igα/CD8-Igβ transfected BJAB cell (human B-cell); assay type: cell-based; conditions: BJAB transfectants, stimulation by monoclonal antibody against BcR

For tautomycetin, the “activation-induced expression of cell surface antigen CD69” value [1] was “suppresses the expression of cell surface antigen CD69”, the “activation-induced expression of IL-2R on the cell surface” value [2] was “suppresses the expression of IL-2R on the cell surface more effectively than cyclosporin A” and the IC50 [3] was 0.043 µM. For the same substance, the “tyrosine phosphorylation of intracellular proteins (TcR-mediated signal transduction), except for ZAP-70” value [4] was “inhibited”, the “IC50, suppressive activity against IL-2 expression” value ([5]; Jurkat T transfectants, immobilized OKT-3 and 64 nM PMA, 24 hours) was 6.6e-06 ng/mL and the “suppressive activity against IL-2 expression relative to cyclosporin A” value ([5]; OKT-3 + PMA) was 100 times. The “Suppressive Activity against IL-2 expression” value ([5]; concentration 10^−7 μg/ml, OKT-3 + PMA) was 74.8, the “Suppressive Activity against IL-2 expression” value ([5]; concentration 10^−8 μg/ml, OKT-3 + PMA) was 46.8 and the “Suppressive Activity against IL-2 expression” value ([5]; concentration 10^−9 μg/ml, OKT-3 + PMA) was 37.5. For the same substance, the “concentration sustaining the heart movement, as fraction of cyclosporin A” value ([6]; i.p., injection formula of Example 11) was 1/50, the “concentration sustaining the heart movement, as fraction of cyclosporin A” value ([6]; i.v., injection formula of Example 12) was 1/500 and the “minimum inhibitory concentration(MIC)” value ([7]; 48 hours at 28° C., size of growth inhibitory zone) was “less than 1 μg/ml”. The “antimicrobial strength relative to cyclosporin A” value ([7]; MIC comparison) was 10 times, the “IC50, suppressive activity against IL-2 expression” value ([8]; Jurkat T transfectants, 4 μM ionomycin and 64 nM PMA, 24 hours) was 3 ng/mL and the “suppressive activity against IL-2 expression relative to cyclosporin A” value ([8]; PMA + ionomycin) was 6 times. For the same substance, the “Suppressive Activity against IL-2 expression” value ([8]; concentration 0.001 μg/ml, PMA + ionomycin) was 12.8, the “Suppressive Activity against IL-2 expression” value ([8]; concentration 0.01 μg/ml, PMA + ionomycin) was 83.9 and the “Suppressive Activity against IL-2 expression” value ([8]; concentration 0.1 μg/ml, PMA + ionomycin) was 88. The “Suppressive Activity against IL-2 expression” value ([8]; concentration 1 μg/ml, PMA + ionomycin) was 98 and the “tyrosine phosphorylation of intracellular proteins in B-cell” value [9] was “does not inhibit”.
